# Results as given in a melting point compilation (Tetko et al.; mined from patent text by program, amines drawn as free bases though some values may be those of a salt).
row,SMILES,melting point [°C]
1,O=C1CCC(N2Cc3c(OCc4ccc(C(F)(F)F)cc4)cccc3C2=O)C(=O)N1 (centres undefined),241 to 243
2,CNc1ccc(C=CC(=O)N2CCc3c([nH]c4ccccc34)C2c2ccc3c(c2)CCO3)cn1 (centres undefined),171
3,CCCCCCCCCCCCCCCC(=O)CC(=O)OCC,37 to 38
4,O=Cc1c(Cl)cncc1Cl,110 to 111
5,CCc1cc(Oc2cncc3sc(C(N)=O)cc23)ccc1Cl,185 to 187
6,CN(C)C1(c2ccccn2)CCC(NCCc2c[nH]c3ccccc23)CC1 (centres undefined),150 to 152
7,CCCCCCCCCCCCCCCC(=O)OCC(COC(=O)CCCCCCCCCCCCCCC)OC(=O)C1C=CC=CC1(O)C(C)=O (centres undefined),43 to 44
8,CCCCCCCCCCCCCCCCCCCCSCCCO,58 to 60
9,COc1ccc2cc(C(C)C(=O)N3CSCC3C(=O)O)ccc2c1 (centres undefined),165 to 168
10,CC(C)CC(=O)Nc1ccc2oc3c(c2c1)CCCCC3,162 to 163
11,COc1ccc(OC)c(-c2cccc(-n3cnc(-c4nc(C)no4)c3)c2)c1,127 to 129
12,CCSCCn1c(=N)sc2cc(OC(F)(F)C(F)(F)F)ccc21,< 50
13,Cc1cc(C(=Cc2nnnn2C)c2ccc(F)c(C)c2)ccc1F,138 to 139
14,COC1=C(c2ccccc2)C(CCCC(=O)O)OC1=O (centres undefined),94 to 96
15,CC1(CCn2c(=O)oc3ccccc32)Cn2cc([N+](=O)[O-])nc2O1 (centres undefined),193 to 195
16,CCCn1cc2c(C3C(=O)Nc4ccc(S(=O)(=O)N(C)C)cc43)nc(NCCN(C)C)nc2n1 (centres undefined),259 to 263
17,CC(=CCO)c1ccc(C2CCCCC2)cc1,54 to 55
18,CC(=O)Nc1ccc(/C=C/C(=O)NCC(=O)N(C)c2ccc(Cl)c(CBr)c2Cl)cn1,222 to 223
19,COc1ccccc1CC(=O)Nc1cc(Cl)c(Cl)cc1[N+](=O)[O-],123 to 125
20,Cc1nc(CSc2cccc(Cl)c2Cl)no1,66 to 68
21,CN(C)CCCNc1ncc2c(n1)-c1ccccc1C(c1ccc(Cl)c(Cl)c1)C2 (centres undefined),59 to 62
22,O=C(Nc1ccc(C(=O)N2Cc3cccn3-c3ccccc32)cc1)c1cccc(Cl)c1Cl,230 to 240
23,O=C(O)c1cccc2c1oc1ccccc12,164 to 165
24,COc1ccc(C2=C(C=O)c3ccc(OC)cc3CC2)cc1,142
25,COCOCC(=O)c1cnc(NC(=O)C(C)(C)C)cn1,141 to 142

row,SMILES,melting point [°C]
1,CC(C=O)n1nnc2ccc(Oc3cc(F)c(C(F)(F)F)c(Cl)c3)cc21 (centres undefined),107 to 108
2,COC(=O)c1ccc2c(c1)Sc1ccccc1NC2,149 to 150
3,CC(C)(C)OC(=O)c1ccc2[nH]ccc2c1,91 to 93
4,Cn1c2c(c3ccccc31)C(=O)NCC2,240 to 244
5,O=C(O)Cc1cnn(-c2ccccc2)c1-c1ccccc1,107 to 110
6,COc1ccc(CCNC(=O)CCCCC(=O)NCCc2ccc(OC)c(OC)c2Cl)c(Cl)c1OC,159 to 161
7,Cc1cccc(NC(=O)NC2CN(C(=O)CN3CCN(C)CC3)c3ccccc3N(CC(=O)c3ccccc3C)C2=O)c1 (centres undefined),245 to 247
8,COc1cc(CCI)cc(OC)c1,30 to 33
9,Cc1ccc(S(=O)(=O)N2N=C(c3ccccc3)CC3CCCC32)cc1 (centres undefined),171 to 176
10,O=C(O)c1cccc2ccc(-c3ccccc3)nc12,159 to 161
11,CCOc1cc(C2=NN(Cc3ccc(N)cc3)C(=O)CC2)ccc1OC,120
12,O=C1c2ccc(O)cc2C(=O)N1c1cccc(O)c1,270
13,CC(=O)NC1Cc2cccc3cccc(c23)C1O (centres undefined),205 to 206
14,C=CCN1C(C)(C)CC(=C2CC(C)(C)N(CC=C)C(C)(C)C2)CC1(C)C,147 to 148
15,CN1C(=O)[C@H](N)N=C(C2CCCCC2)c2ccccc21,130 to 133
16,CC(C)N1CCC(=C2c3ccn(C)c3CCn3ccnc32)CC1,178
17,O=C(O)CP(=O)(O)CCc1ccccc1,120 to 121
18,Cn1c(=O)n(C(N)=O)c2ccccc21,> 250
19,CN1CCC2(C)c3cc(O)cc(Br)c3N(C)C12 (centres undefined),175 to 177
20,CCOP(=O)(Cc1ccc(NC(=O)[C@H]2Cc3cc(OC)c(OC)cc3C(=O)CS2)cc1)OCC,96 to 98
21,Cc1c(-c2ccc(C(C)C)cc2)oc2c(C(=O)O)cccc2c1=O,216 to 220
22,CCc1ccc2c(c1)C=Cc1cc(CC)ccc1C2c1cn(Cc2nc(C(=O)O)cs2)c(=O)[nH]c1=S,162 to 165
23,COCCNC(=O)c1cccc(CN2C(=O)C3(COc4cc5c(cc43)CCO5)c3ccccc32)c1 (centres undefined),72 to 73
24,CCOc1ccc2c(c1O)CCN(C(C)=O)[C@@H]2c1cc(Cl)cc(Cl)c1,238 to 241
25,S=C(NCc1cccnc1)NC(=Nc1cccc2ccccc12)c1ccccc1,153 to 154

row,SMILES,melting point [°C]
1,CC(C)NCCNC(=O)c1ccc(OCc2ccc(-c3ccccc3)cc2)cc1,150 to 154
2,Cc1csc2ccc3[nH]c4c(c3c12)CN(Cc1ccccc1)CC4,93
3,"CCOCCn1c(NC2CCN(CCC3(c4ccccc4)CCN(C(=O)c4cc(OC)c(OC)c(OC)c4)C3)CC2)nc2ccccc21 (single isomer, unassigned; (-))",106 to 117
4,COc1ccc(C(=O)C=Cc2ccc([N+](=O)[O-])cc2)cc1,171 to 173
5,COc1ccc(SCc2c(C(C)C)nc(C(C)C)c(CO)c2-c2ccc(F)cc2)cc1,92 to 93
6,CC(=O)OCC(=O)c1ccc(C)cc1C,43 to 45
7,CCC(CC)N1CCN(C)c2c1cc(C)nc2Oc1c(C)cc(C)cc1C,78 to 80
8,Cc1cc2[nH]c(=O)c(=O)[nH]c2cc1Cl,> 330
9,COc1ccc(Nc2ccnc3nc(C)c(OC(=O)COC(C)=O)cc23)cc1,213 to 216
10,O=C1CCc2ccc(Oc3ccc(CN4CCN(c5cccc(Cl)c5Cl)CC4)cc3)cc2N1,185 to 186
11,CCCCc1ncc(/C=C(\Cc2cccs2)C(=O)O)n1Cc1ccc(C#N)cc1,190 to 192
12,CC(C)(C)SC1CC(=O)N1CC(=O)CCc1ccccc1 (centres undefined),65
13,O=C(c1ccccc1SSc1ccccc1C(=O)N1CCSCC1)N1CCSCC1,90 to 92
14,O=C(OC1CCCC1)c1ccc([N+](=O)[O-])c(OC2CCCC2)c1,45.5 to 46.5
15,COc1cc2c(cc1OC)C(c1cccc(C(F)(F)F)c1)=NN=C(C)C2,134 to 135
16,CCOP(=O)(/C=C/c1cn(-c2ccccc2)nc1OCc1ccc(OCc2nc(-c3cccc(CC(=O)O)c3)oc2C)c(OC)c1)OCC,174 to 175
17,COc1cc(OCCN2CCOCC2)ccc1/C=C/c1cc(/C=C/c2ccc3cc[nH]c3c2)n[nH]1,113 to 122
18,CCCOc1cc(-c2ccc3cc4c(cc3c2)C(C)(C)CCC4(C)C)ccc1C(=O)O,137 to 138
19,CSc1cc(C(=O)O)ccc1C,175
20,CC(C)(C)OC(=O)N1CCC(C(=O)NC2=NCCCN2)CC1,155 to 160
21,Cc1ccc(S(=O)(=O)C(C)(C)C(=O)C(C)C)cc1,76 to 79
22,CCS(=O)(=O)N(c1cc(-c2nsc(C(F)(F)F)c2Cl)c(Cl)cc1Cl)S(=O)(=O)CC,153 to 154
23,COc1nc(C)cnc1NS(=O)(=O)c1cccnc1-c1ccc(-c2ncon2)cc1,179 to 180
24,CCCCCCCCCCCc1ccc(CCCC(N)(CO)CCO)cc1 (centres undefined),73 to 76
25,CCN(CC)S(=O)(=O)c1cc(-c2csc(=Nc3ccccc3C)n2C)ccc1Cl,166

row,SMILES,melting point [°C]
1,O=C(O)c1cc(Cl)c(Cl)nc1Cl,164 to 168
2,CC(C)c1ccc(-c2nccc(-c3ccc(C(=O)O)cc3)n2)cc1,262 to 264
3,Cc1c(C(=O)C(C)Br)ccn1S(=O)(=O)c1ccccc1 (centres undefined),99 to 103
4,CCOCc1nc(C(C)(C)O)c(C(=O)OCOC(=O)C(C)(C)C)n1Cc1ccc(-c2ccccc2C(=O)O)cc1,65
5,CCCCCCCCCCCCCCCCS(=O)(=O)Nc1ccc(OC)c(NC(=O)CC(=O)C2(C)COC(C)(C)OC2)c1,68 to 70
6,COC(=O)C1=C(C)NC(CC(=O)N2CCN(C3CC4CCC(C3)N4C(=O)OC(C)Cl)CC2)=C(C(=O)OC)C1c1c(Cl)cccc1Cl (centres undefined),135 to 145
7,CN1C(=O)CCC(C)(C)c2cc(N)ccc21,119 to 122
8,CCOC(=O)c1ccc(C(=O)NNC(=O)c2ccc(C(=O)OCC)cc2)cc1,191 to 195
9,CC(=O)NC(=CC(C)C)c1ccccc1N1CCCCC1,140 to 143
10,Cc1c(NC(=O)CC(C)(C)C)c(C)c2c(c1C(C)O)OCC2c1ccc(C(C)C)cc1 (centres undefined),156 to 157
11,O=C1Nc2cccc(F)c2C12COc1cc3c(cc12)OCCO3 (centres undefined),282 to 285
12,CCCCNC(=O)c1ccc(Cl)c(-n2nc(CCCC)n(Cc3ccc(-c4ccccc4S(=O)(=O)NC(=O)c4ccccc4Cl)cc3)c2=O)c1,> 155
13,CCOC(=O)Cc1ccc(NC(=O)Nc2ccccc2OC)cc1,107 to 109
14,C(=Cc1ccccc1)COC(CCc1ccccc1)Cn1ccnc1 (centres undefined),116 to 119
15,Cc1c(Cc2cccc(C(F)(F)F)c2)sc2c(-c3cccc(C(=O)NCC(N)=O)c3)cccc12,187 to 188
16,CC12CCC3C(CC=C4CC(O[Si](C)(C)C(C)(C)C)CCC43C)C1CCC2=O (centres undefined),146 to 148
17,O=C(O)[C@@H]1CCc2ccc(O)cc2O1,77 to 79
18,CC(C#CC1CC(Oc2ccc(F)cc2)C1)N(O)C(N)=O (centres undefined),125 to 127
19,CCc1c2s[nH]c(=O)c2c(=O)n2ccc(N3CCC(N(C)C)C3)cc12 (centres undefined),217 to 219
20,COc1ccc2c(c1)C(=O)c1ccc(C(=O)O)cc1S2(=O)=O,324 to 327
21,COc1ccc(C2(c3ccc(OC)cc3)CC(C)N=C2NC(=O)c2cc(C)[nH]n2)cc1 (centres undefined),173
22,CCCCCS(=O)(=O)NC(=O)/C=C/c1cc(OCCCC)nn1Cc1ccc(Cl)cc1Cl,95 to 98
23,N#Cc1c(N2CCCCC2)cc(-c2cccs2)c2c1-c1ccccc1C2,152 to 154
24,CC1CCN(C(=O)c2nc(-c3ccccc3)nc3ccccc23)CC1,138
